Patent US9566250B2, “Artificial tissue constructs comprising alveolar cells and methods for using the same” (SANOFI PASTEUR VAXDESIGN CORPORATION, priority 2007, dated 2017)

Legend:
CYP1A1 and CYP2B1 = experiment: Cytochrome P450 activity of bilayer construct after induction (7-ethoxy/7-pentoxy resorufin); assay type: cell-based, human; conditions: 24 h exposure, then 7-ethoxy or 7-pentoxy resorufin for 30 min; FIG. 8
Method: The effects of polycyclic carcinogens on cytochrome P450 activity in the artificial tissue constructs was also analyzed. Cytochrome P450 proteins are involved in the metabolism of many exogenous and endogenous chemicals, including drugs, steroids, and toxins. Cytochrome P450 induction is indicative of chemical metabolism. Cellular P450 enzyme activity of CYP1A1 & CYP2B1 families was studied. The bilayer constructs were prepared from biopsy samples of three different patients.
The mucosal construct was exposed to either 3-methylcholantherine and β-nitrophenol (FIG. 8) for 24 h, followed by 7-ethoxy resorufin (5-15 μM) or 7-pentoxy resorufin (5-15 μM) addition (for 30 min) to quantify CYP 1A1 and CYP 2B1 activity, respectively. A β-glucuronidase and arylsulfatase enzyme cocktail was then added to the samples and they were incubated for 2 h at 37° C. Fluorometric absorbance was then measured. A standard curve was prepared using resorufin to quantify the P450 activity. 3-Methylcholanthere and β-nitrophenol are known environmental carcinogens found in cigarette smoke and in airborne industrial byproducts.

[1] = tested on: alveolar artificial tissue construct cells; experiment: WST-1 cellular (mitochondrial) activity of treated construct cells; assay type: cell-based, human; conditions: stated in the WST-1 paragraph; 24-h treatments
Method: Cellular uptake of WST-1 was used to determine the mitochondrial activity of live cells. A spectroscopic reading of the collected/metabolized tetrazolium salt was performed to compare the cellular activity of hormone or bacterial particle treated cells to the non-treated control cells after 24-h treatments.

[2] = tested on: bilayer mucosal construct (primary human alveolar epithelial and endothelial cells); experiment: Cytokine production by bilayer alveolar mucosal construct (BioPlex/Luminex 22-plex); assay type: cell-based; conditions: corticosteroid addition for 24 h vs control; FIG. 7
Method: Immunosuppressant effects on the cultured mucosal construct were tested by the addition of, for example, dexamethasone (0.5-0.1 μM) and hydrocortisone (5-10 μM) for 24 h. The effect of, for example, diesel particles (0.01-0.2 mg/mL) and urban dust (0.01-0.2 mg/mL) exposure was also studied in the alveolar tissue. NIST standards Diesel Particulate Matter (SRM 2975), and Urban Dust (SRM 1649a), containing both organic and inorganic components, were used as environmental irritants (FIG. 3). A BioPlex 22-Plex™ cytokine kit (Upstate) was used to quantify the cytokine levels in the collected media.
The cytokine profile of the bilayer construct prepared in a 0.33 cm^2 area Transwell™ cell culture device was compared with the alveolar epithelial cells cultured in T-25 flasks. Controls for each experiment with or without the various irritant treatments were also included in the experimental design.
The effects of immunosuppressant hormonal treatment (dexamethasone and hydrocortisone) and exposure to bacterial particles (E. coli and Staphylococcus aureus) on respiratory cells were examined by quantifying cytokine production by the mucosal tissue. […]
Using Luminex™ immunoassay technology, we simultaneously quantified the 22 cytokine and chemokines in the collected treatment media. […]

In the case of O=c1cc(-c2ccccc2)oc2ccc3ccccc3c12 [BNF, β-napthophenol], the “p450 (CYP1A1 and CYP2B1) activation of construct cells” value (CYP1A1 and CYP2B1) is reported as “less activated” and the “activation of alveolar artificial tissue construct cells” value [1] is reported as “less activated”.

In the case of C[C@]12CCC(=O)C=C1CC[C@@H]1[C@@H]2[C@@H](O)C[C@@]2(C)[C@H]1CC[C@]2(O)C(=O)CO [hydrocortisone], the “cytokine production by the native cells of the bilayer mucosal construct” value [2] is reported as “significant decrease”.

Cc1ccc2cc3c(ccc4ccccc43)c3c2c1CC3 [3-methylcholanthere] was tested, and the “p450 (CYP1A1 and CYP2B1) activation of construct cells” value (CYP1A1 and CYP2B1) was “activated” and the “activation of alveolar artificial tissue construct cells” value [1] was “activated”.
